Earlier results as cited in US20050163858A1 (priority 2003, published 2005).

Key:
dopamine D2 = dopamine D2 (Homo sapiens, UniProt P14416)
serotonin 5HT2A = serotonin 5HT2A (Homo sapiens, UniProt P28223)
serotonin 5HT2C = target: T1, serotonin 5HT2C (Homo sapiens, UniProt P28335)
T1 sequence (P28335 33-458): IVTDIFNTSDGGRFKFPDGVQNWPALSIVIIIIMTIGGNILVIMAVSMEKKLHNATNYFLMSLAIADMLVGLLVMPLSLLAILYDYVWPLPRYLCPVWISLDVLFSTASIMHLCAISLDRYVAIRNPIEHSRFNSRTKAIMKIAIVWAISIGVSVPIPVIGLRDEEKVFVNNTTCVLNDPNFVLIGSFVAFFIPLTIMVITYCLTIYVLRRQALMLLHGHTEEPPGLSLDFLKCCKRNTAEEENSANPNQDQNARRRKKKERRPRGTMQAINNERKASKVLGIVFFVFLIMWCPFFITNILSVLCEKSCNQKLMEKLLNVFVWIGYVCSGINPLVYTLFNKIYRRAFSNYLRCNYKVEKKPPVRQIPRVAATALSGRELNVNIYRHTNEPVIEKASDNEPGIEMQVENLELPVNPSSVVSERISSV

serotonin 5HT1A = target: T2, serotonin 5HT1A (Homo sapiens, UniProt P08908)
T2 sequence (P08908 1-422): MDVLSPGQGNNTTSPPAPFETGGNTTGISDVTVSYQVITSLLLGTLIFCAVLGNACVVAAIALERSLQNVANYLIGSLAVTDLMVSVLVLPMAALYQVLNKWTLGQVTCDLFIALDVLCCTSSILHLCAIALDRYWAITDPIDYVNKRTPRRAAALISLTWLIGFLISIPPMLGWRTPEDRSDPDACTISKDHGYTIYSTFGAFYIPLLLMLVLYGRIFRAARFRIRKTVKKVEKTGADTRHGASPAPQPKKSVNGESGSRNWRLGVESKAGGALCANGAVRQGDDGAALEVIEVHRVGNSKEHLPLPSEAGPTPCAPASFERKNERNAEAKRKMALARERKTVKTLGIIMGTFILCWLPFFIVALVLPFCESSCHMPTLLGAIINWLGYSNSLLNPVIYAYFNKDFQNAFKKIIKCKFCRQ

Measured: in vitro binding affinity

Sequence of dopamine D2 (P14416 whole entry): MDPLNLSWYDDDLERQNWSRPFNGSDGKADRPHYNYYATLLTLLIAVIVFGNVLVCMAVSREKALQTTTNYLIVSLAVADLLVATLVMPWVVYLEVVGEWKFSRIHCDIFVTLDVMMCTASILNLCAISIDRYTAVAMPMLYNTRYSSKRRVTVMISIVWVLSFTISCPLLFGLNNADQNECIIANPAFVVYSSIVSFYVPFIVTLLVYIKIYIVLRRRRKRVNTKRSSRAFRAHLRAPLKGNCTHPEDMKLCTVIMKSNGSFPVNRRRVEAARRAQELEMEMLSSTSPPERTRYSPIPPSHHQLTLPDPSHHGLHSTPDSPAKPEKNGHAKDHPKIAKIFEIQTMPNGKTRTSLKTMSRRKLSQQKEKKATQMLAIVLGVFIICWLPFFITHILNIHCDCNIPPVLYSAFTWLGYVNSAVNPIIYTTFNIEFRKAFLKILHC
Sequence of serotonin 5HT2A (P28223 whole entry): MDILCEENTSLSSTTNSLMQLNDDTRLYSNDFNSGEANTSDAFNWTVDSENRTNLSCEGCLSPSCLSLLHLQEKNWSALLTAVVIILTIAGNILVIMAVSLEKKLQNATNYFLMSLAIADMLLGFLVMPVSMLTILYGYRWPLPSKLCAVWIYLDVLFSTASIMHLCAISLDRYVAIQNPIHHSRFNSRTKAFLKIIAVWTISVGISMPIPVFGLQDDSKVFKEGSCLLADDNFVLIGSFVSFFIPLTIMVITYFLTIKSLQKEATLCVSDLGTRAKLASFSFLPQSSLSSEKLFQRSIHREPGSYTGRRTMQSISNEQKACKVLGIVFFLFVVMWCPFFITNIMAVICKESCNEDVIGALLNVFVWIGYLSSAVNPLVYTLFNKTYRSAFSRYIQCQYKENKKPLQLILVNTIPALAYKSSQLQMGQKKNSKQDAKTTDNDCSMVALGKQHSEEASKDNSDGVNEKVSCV

O=C1Cc2cc(CCN3CCN(c4nsc5ccccc45)CC3)c(Cl)cc2N1 [Ziprasidone, 5-[2-[4-(1,2-benzisothiazol-3-yl)-1-piperazinyl]ethyl]-6-chloro-1,3-dihydro-2H-indol-2-one]
high: dopamine D2 | serotonin 5HT2A | serotonin 5HT2C | serotonin 5HT1A | serotonin 5HT1D | α1-adrenergic receptors
